The test has as its system BDF1 mice, colon carcinoma 38 sc, T/C %. Description: NCI In Vivo Anticancer Drug Screen. Data for tumor model Colon Carcinoma 38 (subcutaneous) in B6D2F1 (BDF1) mice. The following applies: endpoint: median tumor weight (est.), higher = larger tumour. The procedure, abridged:
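Ratio of survival or tumor size, compound-treated animals relative to vehicle controls, in tumor-bearing mice.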

Setting [1] is: dose: 50.0 mg/kg/injection, schedule: Q07DX002 (ip), vehicle: saline with Tween-80.
The mark [2] stands for this setting: dose: 100.0 mg/kg/injection, schedule: Q07DX002 (ip), vehicle: saline with Tween-80.
Where [3] appears, read: dose: 200.0 mg/kg/injection, schedule: Q07DX002 (ip), vehicle: saline with Tween-80.
The mark [4] stands for this setting: dose: 50.0 mg/kg/injection, schedule: Q07DX002 (ip), vehicle: saline.
The mark [5] stands for this setting: dose: 100.0 mg/kg/injection, schedule: Q07DX002 (ip), vehicle: saline.
The mark [6] stands for this setting: dose: 200.0 mg/kg/injection, schedule: Q07DX002 (ip), vehicle: saline.
Setting [7] is: dose: 400.0 mg/kg/injection, schedule: Q07DX002 (ip), vehicle: saline.
Setting [8] is: dose: 12.5 mg/kg/injection, schedule: Q07DX002 (ip), vehicle: saline with Tween-80.
Where [9] appears, read: dose: 25.0 mg/kg/injection, schedule: Q07DX002 (ip), vehicle: saline with Tween-80.
[10] abbreviates: dose: 400.0 mg/kg/injection, schedule: Q07DX002 (ip), vehicle: saline with Tween-80.
Setting [11] is: dose: 12.5 mg/kg/injection, schedule: Q07DX002 (ip), vehicle: saline.
Where [12] appears, read: dose: 25.0 mg/kg/injection, schedule: Q07DX002 (ip), vehicle: saline.

Values joined by “and” are separate entries in the source; they are usually repeats but may differ in a detail not shown here. Equal entries are not always repeated. Inconclusive results are not listed.

With `CC1(C)CC2(C)OC2C2(C1)N=NC(=Nc1ccccc1)O2` (stereo unspecified), the T/C by setting is: under setting [1], 119 % of control; under setting [2], 101 % of control; under setting [3], 213 % of control.

Consider `O=C1CCC(=O)N1CO`, for which the T/C was 112 % of control and 98 % of control under setting [4]; 99 % of control and 100 % of control under setting [5]; 76 % of control and 91 % of control under setting [6]; 36 % of control and 58 % of control under setting [7].

Regarding `C=C1C(=O)C23C(O)CC4C5(C)CCCC4(C(O)OC5)C2C(OC(C)=O)CC1C3O` (stereo unspecified), the T/C (dose: 8.0 mg/kg/injection, schedule: Q07DX002 (ip), vehicle: Klucel (hydroxypropylcellulose) (HPC)) is 72 % of control; the T/C (dose: 8.0 mg/kg/injection, schedule: Q07DX002 (ip), vehicle: saline) is 124 % of control; the T/C (dose: 16.0 mg/kg/injection, schedule: Q07DX002 (ip), vehicle: Klucel (hydroxypropylcellulose) (HPC)) was 72 % of control; the T/C (dose: 16.0 mg/kg/injection, schedule: Q07DX002 (ip), vehicle: saline) is 106 % of control; the T/C (dose: 32.0 mg/kg/injection, schedule: Q07DX002 (ip), vehicle: Klucel (hydroxypropylcellulose) (HPC)) was 106 % of control; the T/C (dose: 32.0 mg/kg/injection, schedule: Q07DX002 (ip), vehicle: saline) is 117 % of control. For the same molecule, the T/C (dose: 64.0 mg/kg/injection, schedule: Q07DX002 (ip), vehicle: Klucel (hydroxypropylcellulose) (HPC)) was 112 % of control; the T/C (dose: 64.0 mg/kg/injection, schedule: Q07DX002 (ip), vehicle: saline) was 101 % of control; the T/C (dose: 128.0 mg/kg/injection, schedule: Q07DX002 (ip), vehicle: Klucel (hydroxypropylcellulose) (HPC)) was 79 % of control.

Turning to `CCCCCCCCCCS(=O)CC(CO)NC(=O)/C=C/c1c(C)[nH]c(=O)[nH]c1=O` (stereo unspecified), the T/C was 76 % of control and 96 % of control (dose: 1.5 mg/kg/injection, schedule: Q07DX002 (ip), vehicle: distilled water + Tween-80); 109 % of control and 96 % of control (dose: 3.0 mg/kg/injection, schedule: Q07DX002 (ip), vehicle: distilled water + Tween-80); 112 % of control and 115 % of control (dose: 12.0 mg/kg/injection, schedule: Q07DX002 (ip), vehicle: distilled water + Tween-80); 80 % of control (dose: 48.0 mg/kg/injection, schedule: Q07DX002 (ip), vehicle: distilled water + Tween-80).

Regarding `OCC1OC(n2cnc3cc(Cl)c(Cl)cc32)C(O)C1O` (stereo unspecified), the T/C is 101 % of control under setting [8], 98 % of control under setting [9], 105 % of control under setting [1] and 98 % of control under setting [2].

Turning to `CCc1c(CC(=O)O)c2cc(C)ccc2n1Cc1ccc(Cl)cc1`, the T/C is 107 % of control (dose: 3.13 mg/kg/injection, schedule: Q07DX002 (ip), vehicle: Klucel (hydroxypropylcellulose) (HPC)); 45 % of control (dose: 6.25 mg/kg/injection, schedule: Q07DX002 (ip), vehicle: Klucel (hydroxypropylcellulose) (HPC)); 72 % of control (dose: 6.25 mg/kg/injection, schedule: Q07DX003 (ip), vehicle: Klucel (hydroxypropylcellulose) (HPC)); 76 % of control (dose: 12.5 mg/kg/injection, schedule: Q07DX002 (ip), vehicle: Klucel (hydroxypropylcellulose) (HPC)); 74 % of control (dose: 12.5 mg/kg/injection, schedule: Q07DX003 (ip), vehicle: Klucel (hydroxypropylcellulose) (HPC)); 60 % of control (dose: 25.0 mg/kg/injection, schedule: Q07DX002 (ip), vehicle: Klucel (hydroxypropylcellulose) (HPC)). Further, the T/C by setting is: (dose: 25.0 mg/kg/injection, schedule: Q07DX003 (ip), vehicle: Klucel (hydroxypropylcellulose) (HPC)) 97 % of control; (dose: 50.0 mg/kg/injection, schedule: Q07DX002 (ip), vehicle: Klucel (hydroxypropylcellulose) (HPC)) 98 % of control; (dose: 50.0 mg/kg/injection, schedule: Q07DX003 (ip), vehicle: Klucel (hydroxypropylcellulose) (HPC)) 116 % of control; (dose: 100.0 mg/kg/injection, schedule: Q07DX002 (ip), vehicle: Klucel (hydroxypropylcellulose) (HPC)) 159 % of control; (dose: 100.0 mg/kg/injection, schedule: Q07DX003 (ip), vehicle: Klucel (hydroxypropylcellulose) (HPC)) 120 % of control; (dose: 200.0 mg/kg/injection, schedule: Q07DX003 (ip), vehicle: Klucel (hydroxypropylcellulose) (HPC)) 48 % of control.

For the molecule `CC[C@](O)(C(=O)O)c1cc2n(c(=O)c1CO)Cc1cc3ccccc3nc1-2`, the T/C is 48 % of control and 62 % of control (dose: 6.25 mg/kg/injection, schedule: Q07DX003 (ip), vehicle: saline); 38 % of control and 60 % of control (dose: 12.5 mg/kg/injection, schedule: Q07DX003 (ip), vehicle: saline); 34 % of control and 41 % of control and 54 % of control (dose: 25.0 mg/kg/injection, schedule: Q07DX003 (ip), vehicle: saline); 23 % of control and 26 % of control and 45 % of control (dose: 50.0 mg/kg/injection, schedule: Q07DX003 (ip), vehicle: saline); 9 % of control (dose: 100.0 mg/kg/injection, schedule: Q07DX003 (ip), vehicle: saline).

For the molecule `O=C(N[C@H](CO)[C@H](O)c1ccc([N+](=O)[O-])cc1)C(Cl)Cl`, the T/C by setting is: under setting [2], 60 % of control; (dose: 112.0 mg/kg/injection, schedule: Q07DX002 (ip), vehicle: saline with Tween-80) 72 % of control; under setting [3], 91 % of control; (dose: 225.0 mg/kg/injection, schedule: Q07DX002 (ip), vehicle: saline + Tween-80 + alcohol) 44 % of control; (dose: 225.0 mg/kg/injection, schedule: Q07DX002 (ip), vehicle: saline with Tween-80) 95 % of control; under setting [10], 112 % of control. The T/C (dose: 450.0 mg/kg/injection, schedule: Q07DX002 (ip), vehicle: saline + Tween-80 + alcohol) is 85 % of control; the T/C (dose: 450.0 mg/kg/injection, schedule: Q07DX002 (ip), vehicle: saline with Tween-80) was 87 % of control and 94 % of control; the T/C (dose: 800.0 mg/kg/injection, schedule: Q07DX002 (ip), vehicle: saline with Tween-80) is 68 % of control; the T/C (dose: 900.0 mg/kg/injection, schedule: Q07DX002 (ip), vehicle: saline + Tween-80 + alcohol) is 41 % of control; the T/C (dose: 900.0 mg/kg/injection, schedule: Q07DX002 (ip), vehicle: saline with Tween-80) is 118 % of control.

With `Nc1ccc2nc3c4ccccc4c(O)n3nc2c1`, the T/C was 83 % of control under setting [1], 101 % of control under setting [2], 94 % of control under setting [3] and 98 % of control under setting [10].

Regarding `CC1(C)OC(=O)N(CO)C1=O`, the T/C runs as follows: under setting [11], 162 % of control; under setting [12], 94 % of control; under setting [4], 120 % of control and 123 % of control; under setting [7], 257 % of control.

As for `C/C=C/c1cc2c(c(=O)o1)C(=O)[C@@H](O)[C@H](C)O2`, the T/C under setting [8] was 73 % of control and 95 % of control; the T/C under setting [9] is 61 % of control and 80 % of control; the T/C under setting [1] is 72 % of control and 76 % of control; the T/C under setting [3] was 71 % of control and 86 % of control.

For `CCN(Cc1ccc(Cl)c(Cl)c1)c1ccc2nc(N)nc(N)c2c1C`, the T/C reads like this: (dose: 6.25 mg/kg/injection, schedule: Q07DX002 (ip), vehicle: distilled water + Tween-80) 165 % of control; (dose: 12.5 mg/kg/injection, schedule: Q07DX002 (ip), vehicle: distilled water + Tween-80) 206 % of control; (dose: 100.0 mg/kg/injection, schedule: Q07DX002 (ip), vehicle: distilled water + Tween-80) 46 % of control.

As for `O=C1C=CC(=O)O1` (tested in a mixture with another compound), the T/C under setting [11] was 155 % of control; the T/C under setting [12] is 106 % of control; the T/C under setting [4] was 90 % of control; the T/C under setting [5] is 100 % of control; the T/C under setting [6] is 86 % of control; the T/C under setting [7] was 86 % of control.

As for `C[n+]1c(-c2cccc(OCCOCCOc3cccc(-c4c5cc(N)ccc5c5ccc(N)cc5[n+]4C)c3)c2)c2cc(N)ccc2c2ccc(N)cc21`, the T/C is 53 % of control (dose: 1.0 mg/kg/injection, schedule: Q07DX002 (ip), vehicle: water); 44 % of control and 45 % of control (dose: 4.0 mg/kg/injection, schedule: Q07DX002 (ip), vehicle: water); 81 % of control (dose: 32.0 mg/kg/injection, schedule: Q07DX002 (ip), vehicle: water).

The values above are taken from PubChem BioAssay AID212 (DTP/NCI, 2004).
